ChEMBL document CHEMBL1201862, “PubChem BioAssay data set” (2004)
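A five-concentration, 48-hour dose response in 96-well plates underlies each endpoint, interpolated linearly between surrounding concentrations. GI50 = concentration required for 50% inhibition of growth.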 The source made the active and inactive calls. Cut-off read from the data, not from the text of the source: active = GI50 up to about 1.1 µM and inactive = higher.

Legend:
Test in all cases: NCI-60 cell line screen, 48 h
A498 = tested on: A498
A549 = tested on: A549
CCRF-CEM = tested on: CCRF-CEM
DLD-1 = tested on: DLD-1
HOP-92 = tested on: HOP-92
HT-29 = tested on: HT-29
IGROV-1 = tested on: IGROV-1
K562 = tested on: K562
KM-20L2 = tested on: KM-20L2
MOLT-4 = tested on: MOLT-4
NCI-H23 = tested on: NCI-H23
RPMI-8226 = tested on: RPMI-8226
SF-295 = tested on: SF-295
SK-MEL-2 = tested on: SK-MEL-2
SNB-19 = tested on: SNB-19
UACC-62 = tested on: UACC-62
UO-31 = tested on: UO-31
BT-549 = tested on: BT-549
MCF7 = tested on: MCF7
T47D = tested on: T47D

SMILES	GI50 (A498)	GI50 (A549)	GI50 (CCRF-CEM)	GI50 (DLD-1)	GI50 (HOP-92)	GI50 (HT-29)	GI50 (IGROV-1)	GI50 (K562)	GI50 (KM-20L2)	GI50 (MOLT-4)	GI50 (NCI-H23)	GI50 (RPMI-8226)	GI50 (SF-295)	GI50 (SK-MEL-2)	GI50 (SNB-19)	GI50 (UACC-62)	GI50 (UO-31)	GI50 (BT-549)	GI50 (MCF7)	GI50 (T47D)
O=C1c2ccccc2C2C1N2C(=O)C(F)(F)F (configuration not stated)	> 100 µM (inactive)	> 100 µM (inactive)	25.9 µM (inactive)	> 100 µM (inactive)	> 100 µM (inactive)	74.8 µM (inactive)	> 100 µM (inactive)	44.2 µM (inactive)	> 100 µM (inactive)	> 100 µM (inactive)	> 100 µM (inactive)	> 100 µM (inactive)	> 100 µM (inactive)	> 100 µM (inactive)	> 100 µM (inactive)	> 100 µM (inactive)	> 100 µM (inactive)	–	–	–
COc1cc(/C=C2\[C@H]3c4c(c(OC)c(C)c(OC)c4OC)CC(C(=O)N2Cc2ccccc2)N3C)c(OC)c(C)c1OC	27 µM (inactive)	> 100 µM (inactive)	19.1 µM (inactive)	47.5 µM (inactive)	19.9 µM (inactive)	19.1 µM (inactive)	21.8 µM (inactive)	27.6 µM (inactive)	20.3 µM (inactive)	19.7 µM (inactive)	34.3 µM (inactive)	20.6 µM (inactive)	19.8 µM (inactive)	> 10 µM (inactive)	27.2 µM (inactive)	16.4 µM (inactive)	19.3 µM (inactive)	–	–	–
CCCCCCCC[N+](C)(C)Cc1ccc(C[N+](C)(C)CCCCCCCC)cc1	38.1 µM (inactive)	32.8 µM (inactive)	> 100 µM (inactive)	35.4 µM (inactive)	32.7 µM (inactive)	6.03 µM (inactive)	13.4 µM (inactive)	28.4 µM (inactive)	7.71 µM (inactive)	43.9 µM (inactive)	4.55 µM (inactive)	90.2 µM (inactive)	63.4 µM (inactive)	14.9 µM (inactive)	24.6 µM (inactive)	77.8 µM (inactive)	> 100 µM (inactive)	–	–	–
CCOC(OC1=CCCC1)C(C)[Se]c1ccccc1 (configuration not stated)	18.2 µM (inactive)	34.8 µM (inactive)	15.2 µM (inactive)	21.6 µM (inactive)	51.2 µM (inactive)	23.3 µM (inactive)	41 µM (inactive)	55.5 µM (inactive)	29.4 µM (inactive)	22.3 µM (inactive)	26.9 µM (inactive)	18.1 µM (inactive)	31.5 µM (inactive)	48.4 µM (inactive)	> 100 µM (inactive)	23.9 µM (inactive)	39.3 µM (inactive)	–	–	–
CCN(CC)CCCNc1ccc2nnn3c4ccc(O)cc4c(=O)c1c23	8.97 µM (inactive)	1.58 µM (inactive)	2.29 µM (inactive)	3.48 µM (inactive)	14.6 µM (inactive)	2.65 µM (inactive)	4.86 µM (inactive)	7.23 µM (inactive)	5.3 µM (inactive)	0.385 µM (active)	11.2 µM (inactive)	3.28 µM (inactive)	9.51 µM (inactive)	15.1 µM (inactive)	10.1 µM (inactive)	16.6 µM (inactive)	0.968 µM (active)	14 µM (inactive)	14 µM (inactive)	22.3 µM (inactive)
CN1N=C2c3ccccc3CC[C@H]2C1c1cccc(O)c1 (some centres not stated)	> 100 µM (inactive)	85.5 µM (inactive)	> 100 µM (inactive)	> 100 µM (inactive)	> 100 µM (inactive)	55.1 µM (inactive)	> 100 µM (inactive)	74.1 µM (inactive)	> 100 µM (inactive)	> 100 µM (inactive)	> 100 µM (inactive)	> 100 µM (inactive)	> 100 µM (inactive)	> 100 µM (inactive)	> 100 µM (inactive)	> 100 µM (inactive)	32.4 µM (inactive)	–	–	–
O=S(=O)(O)C(F)(F)C(F)(F)C(F)(F)C(F)(F)F	43.7 µM (inactive)	> 100 µM (inactive)	> 100 µM (inactive)	> 100 µM (inactive)	9.51 µM (inactive)	> 100 µM (inactive)	> 100 µM (inactive)	> 100 µM (inactive)	> 100 µM (inactive)	> 100 µM (inactive)	> 100 µM (inactive)	> 100 µM (inactive)	> 100 µM (inactive)	> 100 µM (inactive)	> 100 µM (inactive)	> 100 µM (inactive)	> 100 µM (inactive)	–	–	–
